Where only a bound is given, the exact number is not on record here.

The term Ki denotes the equilibrium dissociation constant of an inhibitor or competing ligand from its target.

Among the targets are D(2) dopamine receptor (Homo sapiens, UniProt P14416); D(1A) dopamine receptor (Homo sapiens, UniProt P21728); Histamine H2 receptor (Mus musculus, UniProt P97292).
Experiment [1] deals with 5-hydroxytryptamine receptor 7 (Rattus norvegicus, UniProt P32305).
Experiment [2] addresses 5-hydroxytryptamine receptor 2A (Rattus norvegicus, UniProt P14842).
Experiment [3] has as its target 5-hydroxytryptamine receptor 1B (Homo sapiens, UniProt P28222).
The target in experiment [4] is 5-hydroxytryptamine receptor 1D (Homo sapiens, UniProt P28221).
For experiment [5], the target named is 5-hydroxytryptamine receptor 7 (Homo sapiens, UniProt P34969).
The target in experiment [6] is 5-hydroxytryptamine receptor 1E (Homo sapiens, UniProt P28566).
The target in the next experiment is T1, D(4) dopamine receptor (Homo sapiens, UniProt P21917).
T1 sequence (P21917 whole entry): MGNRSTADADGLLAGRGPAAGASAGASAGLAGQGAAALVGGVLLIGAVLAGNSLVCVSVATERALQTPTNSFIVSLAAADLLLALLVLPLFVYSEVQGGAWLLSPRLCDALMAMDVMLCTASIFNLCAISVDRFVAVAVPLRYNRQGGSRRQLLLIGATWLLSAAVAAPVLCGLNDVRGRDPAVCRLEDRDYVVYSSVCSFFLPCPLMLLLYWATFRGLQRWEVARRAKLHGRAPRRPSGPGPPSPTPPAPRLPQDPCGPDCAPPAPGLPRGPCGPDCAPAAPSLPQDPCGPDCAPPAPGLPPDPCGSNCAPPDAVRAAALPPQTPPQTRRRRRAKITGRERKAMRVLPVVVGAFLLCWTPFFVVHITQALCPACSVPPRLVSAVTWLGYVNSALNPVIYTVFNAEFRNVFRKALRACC

Experiment [7] has as its target T2, 5-hydroxytryptamine receptor 2C (Rattus norvegicus, UniProt P08909).
T2 sequence (P08909 whole entry): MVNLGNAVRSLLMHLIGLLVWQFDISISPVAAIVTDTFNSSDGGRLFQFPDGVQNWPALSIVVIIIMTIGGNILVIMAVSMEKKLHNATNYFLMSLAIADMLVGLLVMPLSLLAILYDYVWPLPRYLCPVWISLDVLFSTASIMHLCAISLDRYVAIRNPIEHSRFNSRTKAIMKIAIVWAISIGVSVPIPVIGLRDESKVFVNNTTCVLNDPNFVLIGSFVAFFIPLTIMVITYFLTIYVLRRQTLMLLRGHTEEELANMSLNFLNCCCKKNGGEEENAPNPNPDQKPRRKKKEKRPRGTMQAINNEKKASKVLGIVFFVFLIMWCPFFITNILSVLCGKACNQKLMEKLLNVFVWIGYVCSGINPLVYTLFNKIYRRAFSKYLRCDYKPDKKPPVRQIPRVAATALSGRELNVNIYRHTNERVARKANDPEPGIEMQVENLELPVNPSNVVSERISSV

The target in experiment [8] is T3, 5-hydroxytryptamine receptor 1F (Homo sapiens, UniProt P30939).
T3 sequence (P30939 whole entry): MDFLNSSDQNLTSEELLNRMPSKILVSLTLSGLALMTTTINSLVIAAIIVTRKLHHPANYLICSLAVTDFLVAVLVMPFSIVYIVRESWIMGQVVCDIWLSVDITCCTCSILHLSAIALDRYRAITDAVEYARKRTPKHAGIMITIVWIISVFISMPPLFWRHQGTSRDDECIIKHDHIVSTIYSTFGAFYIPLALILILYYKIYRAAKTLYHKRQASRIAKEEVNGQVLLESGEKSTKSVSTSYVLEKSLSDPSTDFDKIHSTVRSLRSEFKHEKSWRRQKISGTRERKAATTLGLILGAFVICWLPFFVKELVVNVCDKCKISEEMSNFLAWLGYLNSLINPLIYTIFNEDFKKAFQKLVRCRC

Experiment [9] concerns the target T4, 5-hydroxytryptamine receptor 3A (Rattus norvegicus, UniProt P35563).
T4 sequence (P35563 whole entry): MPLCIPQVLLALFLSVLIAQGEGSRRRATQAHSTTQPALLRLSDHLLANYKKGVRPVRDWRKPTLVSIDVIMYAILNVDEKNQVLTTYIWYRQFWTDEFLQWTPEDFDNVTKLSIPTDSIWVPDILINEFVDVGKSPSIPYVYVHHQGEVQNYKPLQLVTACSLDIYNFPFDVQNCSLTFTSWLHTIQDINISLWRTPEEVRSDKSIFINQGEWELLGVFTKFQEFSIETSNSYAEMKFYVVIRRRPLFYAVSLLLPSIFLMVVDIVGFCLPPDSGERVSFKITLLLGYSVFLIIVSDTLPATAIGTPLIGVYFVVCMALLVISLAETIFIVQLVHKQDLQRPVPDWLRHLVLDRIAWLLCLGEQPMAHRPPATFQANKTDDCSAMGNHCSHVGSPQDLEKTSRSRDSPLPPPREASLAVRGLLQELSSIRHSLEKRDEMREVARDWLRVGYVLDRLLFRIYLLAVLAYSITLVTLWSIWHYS

In experiment [10] the target is 5-hydroxytryptamine receptor 4 (Rattus norvegicus, UniProt Q62758).
For experiment [11], the target named is T5, Solute carrier family 22 member 1 (Rattus norvegicus, UniProt Q63089).
T5 sequence (Q63089 whole entry): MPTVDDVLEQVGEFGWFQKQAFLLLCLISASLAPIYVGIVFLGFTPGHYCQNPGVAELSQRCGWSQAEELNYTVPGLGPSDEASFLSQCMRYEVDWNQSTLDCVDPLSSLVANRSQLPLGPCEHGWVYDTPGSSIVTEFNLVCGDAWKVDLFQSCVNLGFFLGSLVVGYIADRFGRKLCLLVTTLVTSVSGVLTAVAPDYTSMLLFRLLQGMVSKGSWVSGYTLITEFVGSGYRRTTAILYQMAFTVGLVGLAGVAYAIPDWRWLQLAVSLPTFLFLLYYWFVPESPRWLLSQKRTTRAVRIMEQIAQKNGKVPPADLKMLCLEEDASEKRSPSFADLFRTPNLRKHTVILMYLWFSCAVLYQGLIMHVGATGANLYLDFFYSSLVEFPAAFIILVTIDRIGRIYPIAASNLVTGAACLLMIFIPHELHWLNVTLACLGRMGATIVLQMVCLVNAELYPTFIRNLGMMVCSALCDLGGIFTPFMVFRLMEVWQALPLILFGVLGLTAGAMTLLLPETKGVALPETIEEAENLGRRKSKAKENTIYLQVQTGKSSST

Experiment [12] deals with T6, Adrenergic alpha2 receptor (Mesocricetus auratus, UniProt Q60533).
T6 sequence (Q60533 whole entry): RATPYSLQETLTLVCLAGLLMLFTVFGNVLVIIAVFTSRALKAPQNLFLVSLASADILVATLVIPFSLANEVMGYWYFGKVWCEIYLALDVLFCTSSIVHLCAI

In experiment [13] the target is Beta-2 adrenergic receptor (Mus musculus, UniProt P18762).
For experiment [14], the target named is Beta-1 adrenergic receptor (Homo sapiens, UniProt P08588).
The target of experiment [15] is T7, 5-hydroxytryptamine receptor 2C (Homo sapiens, UniProt P28335).
T7 sequence (P28335 whole entry): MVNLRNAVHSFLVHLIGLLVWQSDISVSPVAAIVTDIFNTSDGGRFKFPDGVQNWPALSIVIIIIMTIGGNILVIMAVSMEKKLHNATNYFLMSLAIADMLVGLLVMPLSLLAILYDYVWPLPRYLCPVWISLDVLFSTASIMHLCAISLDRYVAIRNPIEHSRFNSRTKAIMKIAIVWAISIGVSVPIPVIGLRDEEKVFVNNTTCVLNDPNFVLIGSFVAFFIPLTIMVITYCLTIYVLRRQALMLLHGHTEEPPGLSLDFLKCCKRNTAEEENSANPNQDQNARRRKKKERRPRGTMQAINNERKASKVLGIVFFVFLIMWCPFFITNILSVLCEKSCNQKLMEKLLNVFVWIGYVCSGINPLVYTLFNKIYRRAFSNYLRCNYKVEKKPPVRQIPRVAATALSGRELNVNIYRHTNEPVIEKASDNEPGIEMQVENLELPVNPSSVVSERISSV

Chain of Beta-2 adrenergic receptor (P18762 whole entry): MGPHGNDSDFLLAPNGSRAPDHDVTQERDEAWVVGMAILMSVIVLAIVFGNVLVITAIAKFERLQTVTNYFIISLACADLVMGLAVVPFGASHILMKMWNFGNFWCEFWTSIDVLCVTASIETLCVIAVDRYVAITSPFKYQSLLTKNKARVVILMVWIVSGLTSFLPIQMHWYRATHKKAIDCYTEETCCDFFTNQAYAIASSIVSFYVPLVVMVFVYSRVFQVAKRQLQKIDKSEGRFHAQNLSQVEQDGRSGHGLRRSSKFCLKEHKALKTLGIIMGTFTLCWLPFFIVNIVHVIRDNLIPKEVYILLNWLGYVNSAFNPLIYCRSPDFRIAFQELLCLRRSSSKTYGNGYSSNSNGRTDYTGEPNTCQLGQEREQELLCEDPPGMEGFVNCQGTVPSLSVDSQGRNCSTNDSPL
Chain of Beta-1 adrenergic receptor (P08588 whole entry): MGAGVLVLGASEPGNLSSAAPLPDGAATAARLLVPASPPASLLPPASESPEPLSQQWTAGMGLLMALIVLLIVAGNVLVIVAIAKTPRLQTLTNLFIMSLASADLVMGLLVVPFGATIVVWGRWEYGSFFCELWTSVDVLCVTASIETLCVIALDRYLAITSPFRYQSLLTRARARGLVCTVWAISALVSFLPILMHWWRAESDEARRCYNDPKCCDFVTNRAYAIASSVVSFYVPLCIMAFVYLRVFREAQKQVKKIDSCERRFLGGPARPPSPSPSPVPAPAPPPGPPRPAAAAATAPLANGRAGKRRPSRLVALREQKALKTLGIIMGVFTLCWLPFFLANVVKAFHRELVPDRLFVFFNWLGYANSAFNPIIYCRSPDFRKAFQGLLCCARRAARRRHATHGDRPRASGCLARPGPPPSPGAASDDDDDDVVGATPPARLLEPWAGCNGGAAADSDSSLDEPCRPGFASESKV
Chain of D(1A) dopamine receptor (P21728 whole entry): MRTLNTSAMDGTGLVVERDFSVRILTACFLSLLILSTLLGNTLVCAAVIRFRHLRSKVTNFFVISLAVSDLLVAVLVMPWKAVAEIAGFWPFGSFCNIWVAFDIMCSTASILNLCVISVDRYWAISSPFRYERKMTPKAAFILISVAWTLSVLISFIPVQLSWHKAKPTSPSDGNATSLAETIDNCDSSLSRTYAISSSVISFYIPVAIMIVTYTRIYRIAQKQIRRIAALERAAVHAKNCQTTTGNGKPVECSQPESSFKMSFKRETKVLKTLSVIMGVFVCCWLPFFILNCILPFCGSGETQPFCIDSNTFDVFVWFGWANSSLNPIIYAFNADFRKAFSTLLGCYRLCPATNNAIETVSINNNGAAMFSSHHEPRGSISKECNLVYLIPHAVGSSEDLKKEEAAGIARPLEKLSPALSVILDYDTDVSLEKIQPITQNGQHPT
Chain of 5-hydroxytryptamine receptor 2A (P14842 whole entry): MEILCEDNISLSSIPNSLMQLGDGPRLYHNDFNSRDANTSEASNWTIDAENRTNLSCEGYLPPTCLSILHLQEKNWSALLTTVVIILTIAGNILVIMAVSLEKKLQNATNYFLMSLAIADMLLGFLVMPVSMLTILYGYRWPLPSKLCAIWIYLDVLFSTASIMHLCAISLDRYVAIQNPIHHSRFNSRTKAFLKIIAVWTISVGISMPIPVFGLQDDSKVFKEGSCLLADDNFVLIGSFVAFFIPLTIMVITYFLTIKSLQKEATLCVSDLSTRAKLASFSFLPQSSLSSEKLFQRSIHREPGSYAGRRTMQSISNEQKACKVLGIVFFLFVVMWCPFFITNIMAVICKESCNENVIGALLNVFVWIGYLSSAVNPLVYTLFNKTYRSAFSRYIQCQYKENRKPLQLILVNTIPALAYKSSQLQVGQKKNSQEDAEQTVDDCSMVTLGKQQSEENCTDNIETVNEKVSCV
Chain of 5-hydroxytryptamine receptor 4 (Q62758 whole entry): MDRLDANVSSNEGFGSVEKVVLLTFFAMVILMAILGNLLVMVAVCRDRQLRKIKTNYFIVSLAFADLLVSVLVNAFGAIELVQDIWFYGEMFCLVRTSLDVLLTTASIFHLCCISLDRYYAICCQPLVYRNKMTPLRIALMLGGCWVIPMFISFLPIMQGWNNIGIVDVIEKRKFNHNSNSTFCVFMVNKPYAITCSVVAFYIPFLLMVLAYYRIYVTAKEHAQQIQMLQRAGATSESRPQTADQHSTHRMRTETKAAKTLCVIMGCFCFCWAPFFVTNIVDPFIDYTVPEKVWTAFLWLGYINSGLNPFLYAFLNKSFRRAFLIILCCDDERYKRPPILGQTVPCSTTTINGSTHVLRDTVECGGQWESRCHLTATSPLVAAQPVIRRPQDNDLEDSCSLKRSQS
Chain of 5-hydroxytryptamine receptor 1B (P28222 whole entry): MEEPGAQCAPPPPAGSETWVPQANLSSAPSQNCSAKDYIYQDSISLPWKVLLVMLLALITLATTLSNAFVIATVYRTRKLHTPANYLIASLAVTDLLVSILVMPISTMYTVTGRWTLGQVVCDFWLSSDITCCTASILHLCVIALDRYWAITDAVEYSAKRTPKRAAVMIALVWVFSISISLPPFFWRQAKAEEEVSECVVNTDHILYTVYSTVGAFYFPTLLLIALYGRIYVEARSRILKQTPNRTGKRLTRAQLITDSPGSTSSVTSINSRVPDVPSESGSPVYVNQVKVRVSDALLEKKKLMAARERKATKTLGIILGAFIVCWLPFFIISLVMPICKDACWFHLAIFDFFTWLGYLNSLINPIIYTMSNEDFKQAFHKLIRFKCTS
Chain of 5-hydroxytryptamine receptor 7 (Rattus norvegicus, UniProt P32305) (P32305 whole entry): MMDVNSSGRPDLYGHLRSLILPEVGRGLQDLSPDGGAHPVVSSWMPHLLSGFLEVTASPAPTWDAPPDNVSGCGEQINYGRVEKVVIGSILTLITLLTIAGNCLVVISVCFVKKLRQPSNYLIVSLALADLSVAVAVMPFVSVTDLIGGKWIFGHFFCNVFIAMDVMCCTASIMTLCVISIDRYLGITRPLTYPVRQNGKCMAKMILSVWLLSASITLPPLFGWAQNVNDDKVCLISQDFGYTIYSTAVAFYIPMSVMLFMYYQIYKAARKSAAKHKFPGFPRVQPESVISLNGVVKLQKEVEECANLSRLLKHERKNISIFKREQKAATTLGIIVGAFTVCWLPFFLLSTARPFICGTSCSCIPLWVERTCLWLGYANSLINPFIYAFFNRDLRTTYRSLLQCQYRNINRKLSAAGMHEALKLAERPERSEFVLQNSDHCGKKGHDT
Chain of Histamine H2 receptor (P97292 whole entry): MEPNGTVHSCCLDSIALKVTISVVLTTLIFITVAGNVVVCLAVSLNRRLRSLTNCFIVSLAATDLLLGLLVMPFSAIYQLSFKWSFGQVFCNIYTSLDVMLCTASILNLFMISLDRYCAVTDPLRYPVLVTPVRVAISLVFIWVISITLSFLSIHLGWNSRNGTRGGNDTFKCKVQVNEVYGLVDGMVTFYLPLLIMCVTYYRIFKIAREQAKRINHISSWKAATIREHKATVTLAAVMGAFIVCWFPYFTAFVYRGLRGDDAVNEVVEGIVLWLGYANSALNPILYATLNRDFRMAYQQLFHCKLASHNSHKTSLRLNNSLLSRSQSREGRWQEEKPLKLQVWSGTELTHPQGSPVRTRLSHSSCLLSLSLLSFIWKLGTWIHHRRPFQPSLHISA
Chain of D(2) dopamine receptor (P14416 whole entry): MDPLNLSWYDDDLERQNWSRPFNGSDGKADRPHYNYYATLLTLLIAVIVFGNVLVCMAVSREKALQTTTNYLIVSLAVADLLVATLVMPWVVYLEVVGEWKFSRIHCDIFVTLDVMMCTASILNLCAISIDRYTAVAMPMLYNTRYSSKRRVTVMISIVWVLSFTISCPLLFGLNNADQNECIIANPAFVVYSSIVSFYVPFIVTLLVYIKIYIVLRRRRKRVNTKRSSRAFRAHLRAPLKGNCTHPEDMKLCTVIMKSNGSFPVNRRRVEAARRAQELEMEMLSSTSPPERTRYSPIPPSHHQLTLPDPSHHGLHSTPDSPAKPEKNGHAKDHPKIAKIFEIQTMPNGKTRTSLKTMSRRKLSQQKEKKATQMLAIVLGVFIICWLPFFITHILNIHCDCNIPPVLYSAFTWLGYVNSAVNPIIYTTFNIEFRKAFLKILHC
Chain of 5-hydroxytryptamine receptor 1D (P28221 whole entry): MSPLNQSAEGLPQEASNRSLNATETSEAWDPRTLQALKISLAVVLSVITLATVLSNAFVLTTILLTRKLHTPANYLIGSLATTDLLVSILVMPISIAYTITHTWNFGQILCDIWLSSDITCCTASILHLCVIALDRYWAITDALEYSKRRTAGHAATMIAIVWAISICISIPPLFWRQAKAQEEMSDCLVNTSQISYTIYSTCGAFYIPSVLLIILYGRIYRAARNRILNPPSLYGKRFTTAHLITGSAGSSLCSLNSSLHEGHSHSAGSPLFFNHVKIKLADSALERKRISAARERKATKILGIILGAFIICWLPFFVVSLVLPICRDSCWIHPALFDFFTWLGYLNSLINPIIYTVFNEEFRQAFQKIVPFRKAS
Chain of 5-hydroxytryptamine receptor 1E (P28566 whole entry): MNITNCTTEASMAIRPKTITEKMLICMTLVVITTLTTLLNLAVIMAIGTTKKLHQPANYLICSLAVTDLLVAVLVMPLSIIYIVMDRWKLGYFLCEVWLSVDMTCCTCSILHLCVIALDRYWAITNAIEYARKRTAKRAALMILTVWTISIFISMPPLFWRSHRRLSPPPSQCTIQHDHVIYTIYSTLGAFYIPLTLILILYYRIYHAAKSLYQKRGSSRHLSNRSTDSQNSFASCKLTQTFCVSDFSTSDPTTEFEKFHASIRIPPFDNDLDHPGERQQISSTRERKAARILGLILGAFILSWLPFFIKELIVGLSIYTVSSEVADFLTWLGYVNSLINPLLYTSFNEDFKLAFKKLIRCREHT

Consider `CC(N)Cc1c[nH]c2ccc(OCc3cccs3)cc12` (centres undefined) [NSC_5311036], for which the inhibitory constant (Ki) in [1] worked out at 1 µM; in [2], 0.251 µM; in experiment [3], 0.126 µM; in [4] it was 0.631 µM; in experiment [5] it was 3.16 µM; in experiment [6] it was 3.16 µM. For the same compound, the Ki is greater than 10 µM at D(4) dopamine receptor; greater than 10 µM at D(2) dopamine receptor; greater than 10 µM on D(1A) dopamine receptor; 0.126 µM in experiment [7]; 7.94 µM in experiment [8]; 0.316 µM in [9]. The Ki (in experiment [10]; in experiment [11]; in experiment [12]; on Histamine H2 receptor; in experiment [13]; in [14]) was greater than 10 µM in each case. In experiment [15], the inhibition constant (Ki) came to 0.501 µM.
